The test system of this assay is BDF1 mice, Adenocarcinoma 755 s.c., tumor weight T/C. Briefly: NCI In Vivo Anticancer Drug Screen. Data for tumor model Adenocarcinoma 755 (subcutaneous) in B6D2F1 (BDF1) mice. The following applies: endpoint: mean tumor weight, higher = larger tumour. A digest of the protocol: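 Compound activity was tested in mice carrying transplanted tumors. Survival or tumor size was measured, and each value is the treated-group measurement divided by that of the vehicle-treated control group (T/C).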

Where [1] appears, read: dose: 125.0 mg/kg/injection, schedule: Q01DX011 (ip), vehicle: methylcellulose (MC).
Setting [2] is: dose: 250.0 mg/kg/injection, schedule: Q01DX011 (ip), vehicle: methylcellulose (MC).
Where [3] appears, read: dose: 113.0 mg/kg/injection, schedule: Q01DX011 (ip), vehicle: carboxymethylcellulose (CMC).

“And” between values parts separate entries of the source, which are not always exact repeats. Identical values can stand only once.

As to `Cn1c(=O)c2c(ncn2CC(=O)O)n(C)c1=O`, the T/C – broadly, the result in the treated group divided by that in the control group, in per cent – is, setting by setting: (dose: 63.0 mg/kg/injection, schedule: Q01DX011 (ip), vehicle: methylcellulose (MC)) 106 % of control; under setting [1], 89 % of control; under setting [2], 112 % of control; (dose: 500.0 mg/kg/injection, schedule: Q01DX011 (ip), vehicle: methylcellulose (MC)) 117 % of control.
Consider `Cn1cnc2c(F)ncnc21`, for which the T/C runs as follows: (dose: 8.5 mg/kg/injection, schedule: Q01DX011 (ip), vehicle: carboxymethylcellulose (CMC)) 106 % of control; (dose: 17.0 mg/kg/injection, schedule: Q01DX011 (ip), vehicle: carboxymethylcellulose (CMC)) 96 % of control; (dose: 34.0 mg/kg/injection, schedule: Q01DX011 (ip), vehicle: carboxymethylcellulose (CMC)) 85 % of control; (dose: 68.0 mg/kg/injection, schedule: Q01DX011 (ip), vehicle: carboxymethylcellulose (CMC)) 84 % of control.
For `COc1cc([C@@H]2c3cc4c(cc3[C@H](O)[C@H]3COC(=O)[C@H]23)OCO4)cc(OC)c1OC`, the T/C is 102 % of control (dose: 0.13 mg/kg/injection, schedule: Q01DX011 (ip), vehicle: carboxymethylcellulose (CMC)); 60 % of control and 80 % of control (dose: 0.27 mg/kg/injection, schedule: Q01DX011 (ip), vehicle: carboxymethylcellulose (CMC)); 109 % of control (dose: 0.54 mg/kg/injection, schedule: Q01DX011 (ip), vehicle: carboxymethylcellulose (CMC)); 76 % of control (dose: 0.55 mg/kg/injection, schedule: Q01DX011 (ip), vehicle: carboxymethylcellulose (CMC)); 120 % of control (dose: 1.08 mg/kg/injection, schedule: Q01DX011 (ip), vehicle: carboxymethylcellulose (CMC)); 117 % of control (dose: 1.1 mg/kg/injection, schedule: Q01DX011 (ip), vehicle: carboxymethylcellulose (CMC)).
With `CCC(C)SC1=NC=NC2=NC=NC21` (stereo not drawn), the T/C by setting is: (dose: 9.0 mg/kg/injection, schedule: Q01DX011 (ip), vehicle: other) 56 % of control; (dose: 13.0 mg/kg/injection, schedule: Q01DX011 (ip), vehicle: other) 33 % of control; (dose: 20.0 mg/kg/injection, schedule: Q01DX011 (ip), vehicle: other) 6 % of control; (dose: 30.0 mg/kg/injection, schedule: Q01DX011 (ip), vehicle: other) 6 % of control.
For `Nc1nc(SCc2ccccc2)c2ncn(C3CCCC3)c2n1`, the T/C (dose: 4.6 mg/kg/injection, schedule: Q01DX011 (ip), vehicle: carboxymethylcellulose (CMC)) is 79 % of control; the T/C (dose: 9.3 mg/kg/injection, schedule: Q01DX011 (ip), vehicle: carboxymethylcellulose (CMC)) was 70 % of control; the T/C (dose: 18.7 mg/kg/injection, schedule: Q01DX011 (ip), vehicle: carboxymethylcellulose (CMC)) was 69 % of control; the T/C (dose: 37.5 mg/kg/injection, schedule: Q01DX011 (ip), vehicle: carboxymethylcellulose (CMC)) is 24 % of control; the T/C (dose: 75.0 mg/kg/injection, schedule: Q01DX011 (ip), vehicle: carboxymethylcellulose (CMC)) was 11 % of control; the T/C (dose: 150.0 mg/kg/injection, schedule: Q01DX011 (ip), vehicle: carboxymethylcellulose (CMC)) was 2 % of control. Besides, the T/C runs as follows: (dose: 300.0 mg/kg/injection, schedule: Q01DX011 (ip), vehicle: carboxymethylcellulose (CMC)) 1 % of control; (dose: 375.0 mg/kg/injection, schedule: Q01DX011 (ip), vehicle: carboxymethylcellulose (CMC)) 33 % of control.
As to `Cn1c(=O)c2c(nc(/N=C/c3ccccc3)n2C)n(C)c1=O`, the T/C (dose: 25.0 mg/kg/injection, schedule: Q01DX011 (ip), vehicle: methylcellulose (MC)) was 51 % of control.
Consider `Cc1ccccc1Nc1nc(N)nc(C)c1Br`, for which the T/C (dose: 15.0 mg/kg/injection, schedule: Q01DX011 (ip), vehicle: methylcellulose (MC)) was 55 % of control; the T/C (dose: 31.0 mg/kg/injection, schedule: Q01DX011 (ip), vehicle: methylcellulose (MC)) was 88 % of control; the T/C (dose: 62.0 mg/kg/injection, schedule: Q01DX011 (ip), vehicle: methylcellulose (MC)) is 106 % of control; the T/C under setting [1] is 72 % of control; the T/C under setting [2] is 81 % of control.
As for `CC(CNC(=O)CCBr)CNC(=O)CCBr`, the T/C under setting [3] was 51 % of control.
For the compound `OB(O)O`, the T/C is 39 % of control and 45 % of control (dose: 500.0 mg/kg/injection, schedule: Q#A X022 (oral), vehicle: water); 16 % of control (dose: 750.0 mg/kg/injection, schedule: Q#A X022 (oral), vehicle: water); 9 % of control (dose: 1000.0 mg/kg/injection, schedule: Q#A X022 (oral), vehicle: water).
For the compound `CCN(CC)c1ccc(/C=C/c2ccnc3ccccc23)cc1`, the T/C (dose: 2.5 mg/kg/injection, schedule: Q01DX011 (ip), vehicle: other) is 86 % of control; the T/C (dose: 3.03 mg/kg/injection, schedule: Q01DX011 (ip), vehicle: carboxymethylcellulose (CMC)) was 77 % of control; the T/C (dose: 3.23 mg/kg/injection, schedule: Q01DX011 (ip), vehicle: other) is 84 % of control; the T/C (dose: 4.8 mg/kg/injection, schedule: Q01DX011 (ip), vehicle: carboxymethylcellulose (CMC)) was 74 % of control; the T/C (dose: 5.0 mg/kg/injection, schedule: Q01DX011 (ip), vehicle: other) is 91 % of control; the T/C (dose: 6.0 mg/kg/injection, schedule: Q01DX011 (ip), vehicle: carboxymethylcellulose (CMC)) was 69 % of control. Further, the T/C runs as follows: (dose: 6.05 mg/kg/injection, schedule: Q01DX011 (ip), vehicle: carboxymethylcellulose (CMC)) 119 % of control; (dose: 6.45 mg/kg/injection, schedule: Q01DX011 (ip), vehicle: other) 115 % of control; (dose: 8.0 mg/kg/injection, schedule: Q01DX011 (ip), vehicle: carboxymethylcellulose (CMC)) 55 % of control; (dose: 9.68 mg/kg/injection, schedule: Q01DX011 (ip), vehicle: carboxymethylcellulose (CMC)) 64 % of control; (dose: 12.0 mg/kg/injection, schedule: Q01DX011 (ip), vehicle: carboxymethylcellulose (CMC)) 46 % of control; (dose: 12.1 mg/kg/injection, schedule: Q01DX011 (ip), vehicle: carboxymethylcellulose (CMC)) 31 % of control. For the same compound, the T/C is 55 % of control (dose: 12.9 mg/kg/injection, schedule: Q01DX011 (ip), vehicle: other); 70 % of control (dose: 14.0 mg/kg/injection, schedule: Q01DX011 (ip), vehicle: carboxymethylcellulose (CMC)); 25 % of control (dose: 15.0 mg/kg/injection, schedule: Q01DX011 (ip), vehicle: other); 52 % of control (dose: 16.13 mg/kg/injection, schedule: Q01DX011 (ip), vehicle: carboxymethylcellulose (CMC)).
`Cc1ccc(CNc2ncnc3c2cnn3C2CCCCO2)cc1` (stereo not drawn): the T/C was 109 % of control (dose: 18.7 mg/kg/injection, schedule: Q01DX011 (ip), vehicle: methylcellulose (MC)); 35 % of control (dose: 37.5 mg/kg/injection, schedule: Q01DX011 (ip), vehicle: methylcellulose (MC)); 88 % of control (dose: 75.0 mg/kg/injection, schedule: Q01DX011 (ip), vehicle: methylcellulose (MC)); 44 % of control (dose: 150.0 mg/kg/injection, schedule: Q01DX011 (ip), vehicle: methylcellulose (MC)).
For the compound `C[C@H]1C[C@@H]2[C@H]([C@@H](O)C[C@@]3(C)[C@H]2CC[C@]3(O)C(=O)CO)[C@@]2(C)C=CC(=O)C=C12`, the T/C by setting is: (dose: 14.3 mg/kg/injection, schedule: Q01DX011 (sc), vehicle: steriod suspending solution) 21 % of control; (dose: 14.3 mg/kg/injection, schedule: Q01DX011 (sc), vehicle: water) 48 % of control and 56 % of control; (dose: 28.5 mg/kg/injection, schedule: Q01DX011 (sc), vehicle: steriod suspending solution) 8 % of control; (dose: 28.5 mg/kg/injection, schedule: Q01DX011 (sc), vehicle: water) 25 % of control and 47 % of control; (dose: 57.0 mg/kg/injection, schedule: Q01DX011 (sc), vehicle: steriod suspending solution) 1 % of control; (dose: 57.0 mg/kg/injection, schedule: Q01DX011 (sc), vehicle: water) 5 % of control and 29 % of control. In addition, the T/C is 1 % of control (dose: 114.0 mg/kg/injection, schedule: Q01DX011 (sc), vehicle: steriod suspending solution) and 3 % of control (dose: 114.0 mg/kg/injection, schedule: Q01DX011 (sc), vehicle: water).
Consider `CC1CN1P(=O)(N1CCc2ccccc21)N1CC1C` (stereo not drawn), for which the T/C (dose: 28.0 mg/kg/injection, schedule: Q01DX011 (ip), vehicle: carboxymethylcellulose (CMC)) is 97 % of control; the T/C (dose: 56.0 mg/kg/injection, schedule: Q01DX011 (ip), vehicle: carboxymethylcellulose (CMC)) was 67 % of control; the T/C under setting [3] is 41 % of control; the T/C (dose: 226.0 mg/kg/injection, schedule: Q01DX011 (ip), vehicle: carboxymethylcellulose (CMC)) was 2 % of control.

The values above are taken from PubChem BioAssay AID180 (DTP/NCI, 2004).
